Source: patent publication US8557767B2, “Synthetic apolipoprotein E mimicking polypeptides and methods of use” (UAB Research Foundation, priority 2007, dated 2013)

Key:
[1] = test system: atherogenic apo B-containing lipoproteins in human plasma; conditions: cited from earlier work
[2] = test system: human VLDL; conditions: cited from earlier work
[3] = test system: apo E null mice; experiment: Plasma cholesterol in apo E null mice after i.v. 18L-2Y or R18L-2Y; assay type: in vivo; conditions: 100 ug i.v.
Text: Dual domain peptide that has LRKLRKRLLR (SEQ ID NO: 1), a sequence from apo E putative receptor binding domain, covalently linked to 18A (SEQ ID NO: 11) enhances uptake and degradation of apo B-containing lipoproteins. […] It has also been previously shown that that if the Lys residues are replaced by Arg, compared to the Lys-containing peptide, the resulting Arg-containing peptide has only 2% of lysis (Aikawa, M., et al. Circulation 106:1390-1396 2002). […] Rearrangement of the nonpolar face of 18L to incorporate aromatic residues at the center of the nonpolar face yields 18L-2. Addition of Tyr (for radiolabeling) yields 18L-2Y (FIG. 15). All of the Lys residues changed to Arg results in R18L2Y (FIG. 15).

[4] = test system: apo E null mice; experiment: Oral feeding of peptides in chow to apo E null mice: plasma cholesterol and aortic sinus lesion
Method: The peptides were mixed in normal chow (1 mg/4 g chow) and fed ad libitum.
The study was continued for 6 weeks.

[5] = test system: apo E null mice; experiment: Plasma cholesterol in apo E null mice after i.v. dual-domain peptides; assay type: in vivo; conditions: iv, n=4
Method: The peptides represented are Ac-hE-18A-NH2, Ac-hE4F-NH2, and Ac-hE-Sc2F-NH2. Peptides Ac-hE-18A-NH2, Ac-hE-4F-NH2 and Ac-hE-Sc18A were administered (i.v.) to apo E null mice (n=4) and plasma cholesterol values were determined at before administration (0 min), 5 min and 2 h after administration.
As described above, peptides Ac-hE-18A-NH2, Ac-hE-4F-NH2 and Ac-hE-Sc18A were administered (iv) to apo E null mice (n=4) and plasma cholesterol values were determined at before administration (0 min), 5 min and 2 h after administration.

[6] = test system: HepG2 cells; experiment: Apo A-I / prebeta-HDL secretion by HepG2 cells; assay type: cell-based; conditions: for prebeta-HDL production: equal amount on weight basis (50 ug/ml), first overnight incubation; for prebeta-HDL amount after second and third overnight incubation: fresh cell medium without peptide

For “Ac-18A-NH2: control peptide; end protected 18A (DWLKAFYDKVAEKLKEAF) (Ac-DWLKAFYDKVAEKLKEAF-NH2) [reference compound]”, the “association with atherogenic apo B-containing lipoproteins” value [1] is given as “not” and the “interaction with VLDL” value [2] is given as “displacement of apo E from VLDL”.

With Ac-GFRRFLGSWARIYRAFVG-NH2 [R18L-2Y] the “ability to clear plasma cholesterol” value [3] was “increased ability to clear plasma cholesterol compared to 18L-2Y”, the “plasma cholesterol at end of 6 week feeding” value ([4]; 1 mg per 4 g chow) was “significantly reduced” and the “atherosclerotic lesion formation, aortic sinus, Oil Red O” value ([4]; 1 mg per 4 g chow, 6 weeks, four week old female mice) was “significantly less lesion formation”. For the same substance, the “plasma cholesterol levels at 15 days and 30 days” value ([4]; 1 mg/4 g of chow per animal per day, n=5) was “significant decrease”.

With “Ac-hE-4F-NH2: dual-domain cationic peptide, hE linked to 4F, end protected (Ac-LRKLRKRLLRDWFKAFYDKVAEKFKEAF-NH2)” the “reduction in plasma cholesterol levels at 2 h time point” value [5] was “large reduction”, the prebeta-HDL production [6] was “produced preβ-HDL” and the “prebeta-HDL amount after second and third overnight incubation” value [6] was “produced significant amounts”.

For “DWFKAFYDKVAEKFKEAF [4F, reference compound]”, the prebeta-HDL production [6] was “produced preβ-HDL” and the “prebeta-HDL amount after second and third overnight incubation” value [6] was “levels similar to that of control cell medium”.

In the case of LRKLRKRLLR, the “association with atherogenic apo B-containing lipoproteins” value [1] is listed as “not”.
